In brackets after ≈: the same amount, converted by molar mass. Several values for one entry are separate records, joined by “and”; a condition that tells them apart may be missing. Equal values may be shown once. Entries after “also recorded” stand apart in the source; their conditions may differ.
What was measured:
L-1210 Lymphoid Leukemia [1] = assay: NCI screen, L-1210 Lymphoid Leukemia, intraperitoneal (summary); assay type: in vivo, Mouse; details: for dosage range over which activity was observed: i.p. L1210, ILS≥25%; for Table II evaluation: full wrapped cell: Activity substantially greater than the minimal
Excerpt: (§1) The activity of the compound has been evaluated by experiments carried out under the auspices of the Division of Cancer Treatment, National Cancer Institute, employing techniques considered to be reliable indicators of chemotherapeutic utility in the treatment of forms of cancer in human patients. The details of the methodology employed in the reported experiments may be determined with reference to established NCI screening methods.
(§2) In the experiments conducted by the NCI, evaluation of activity is made on the basis of appropriate parameters, such as median survival time (MST) or change in average tumor diameter (CATD)in ocular micrometer units (OMU).

Colon 38 = assay: NCI screen, Colon 38, subcutaneous (summary); assay type: in vivo, Mouse; details: for Antitumor activity in words: colon 38
Excerpt: as §1, §2

[2] = tested on: MX-1 mammary tumor xenograft; assay: NCI screen, MX-1 breast (mammary) xenograft, renal capsule (summary); assay type: in vivo, human tumor xenograft in athymic mice; details: for Antitumor activity in words: MX-1 mammary xenograft
Excerpt: as §1, §2

[3] = Blood compatibility testing, canine; details: 50 mg/ml, 1:1
L-1210 Lymphoid leukemia [4] = assay: Experiment 6: L-1210 i.p., 10^4 cells, saline with Tween-80, male; assay type: in vivo, Mouse CD2 F1 (CDF1)
Excerpt: (§3) Host: Mouse CD2 F1 (CDF1)
(§4) Tumor: L-1210 Lymphoid leukemia
(§5) Inoculum Site: Intraperitoneal
(§6) Vehicle: Saline with Tween-80
(§7) Treatment schedule (relative to tumor inoculation day): daily on days 1-9
(§8) Day of evaluation (relative to tumor inoculation day): 30
(§9) Parameter: Median survival time (MST) in days
(§10) NCI minimal activity criteria: Percent T/C≥125
(§11) Percent T/C: Ratio of test (T) evaluation to control (C) evaluation expressed as a percentage

L-1210 Lymphoid leukemia [5] = assay: Experiment 9: L-1210 i.p., 10^5 cells, saline with Tween-80, male; assay type: in vivo, CD2F1 (CDF)
Excerpt: as §4, §5, §6, §7, §8
Parameter: Mean survival time (MST) in days
as §10, §11

[6] = tested on: P388 Lymphocytic leukemia; assay: Experiment 11: P388 i.p., 10^6 cells, saline with Tween-80, female; assay type: in vivo, Mouse CD2 F1 (CDF1)
Excerpt: as §3
Tumor: P388 Lymphocytic leukemia
as §5, §6, §7, §8, §9
NCI minimal activity criteria: Percent T/C≥120
as §11

B16 Melanocarcinoma [7] = assay: Experiment 17: B16 i.p., saline with Tween-80, female; assay type: in vivo, Mouse B6C3F1
Excerpt: (§12) Tumor: B16 Melanocarcinoma
as §5
(§13) Tissue: Homogenate (or brei), tumor
as §6, §7
(§14) Day of evaluation (relative to tumor inoculation day): 60
as §9, §10, §11

B16 Melanocarcinoma [8] = assay: Experiment 18: B16 i.p., saline with Tween-80, male; assay type: in vivo, Mouse B6 C3 F1
Excerpt: as §12, §5, §13, §6, §7, §14, §9, §10, §11

beagle dogs = assay: Single dose dog toxicity study; assay type: in vivo; details: for Mortality / lethality: single; for toxicity summary, dogs: single dose i.v.
Description: Preclinical toxicity studies of BIDA were completed in CD2F1 Mice, Fischer 344 rats and beagle dogs (4). The animals were injected IV with a single bolus or daily for five days.
A preclinical toxicology study of benzisoquinolinedione (NSC-308847) was done at Springborn Institute for Bioresearch, Inc. using CD2 F1 mice, Fischer 344 rats and beagle dogs. Animals were injected intravenously on a single dose (X1) or five daily dose (X5) regimen. Bulk drug was titrated with 0.5N HCl to form a salt solution of benzisoquinolinedione at a pH of 5.0-6.5. Sterile 0.9% saline was used for diluting the dosing solutions and was used for the vehicle control animals.
The following summarizes the major organ toxicities resulting from IV administration of benzisoquinolinedione to dogs.

HeLa cells = details: cytotoxic activity in vitro, monolayer; cited from earlier work
[9] = 18.4 mg/kg, three dogs, days 2, 3 and/or 4

## CN(C)CCN1C(=O)c2cccc3cc(N)cc(c23)C1=O [Example 9, 1H-Benz[de]isoquinoline-1,3(2H)-dione, 5-amino-2-[2-(dimethylamino)ethyl]]
L-1210 Lymphoid Leukemia [1]; listed as BIDA
  dosage range over which activity was observed: two-fold dosing range
L-1210 Lymphoid Leukemia [1]; listed as the compound
  dosage range over which activity was observed: two-fold dosage range
L-1210 Lymphoid Leukemia [1]; ip, 16 mg/kg
  mean optimal increased life span (ILS): 96%
  optimal increased life spans (ILS): 75-117%
L-1210 Lymphoid Leukemia [1]; mean survival time, 12 tests
  Table II evaluation: Activity
L-1210 Lymphoid Leukemia [1]; median survival time, 21 tests
  Table II evaluation: Activity
L-1210 Lymphoid Leukemia [1]; p.o. or I.V.
  activity by other routes: is retained when given p.o. or I.V.
L-1210 Lymphoid Leukemia [1]; solution in 0.1 N HCl diluted with saline
  ILS: 117%
Colon 38; 64 mg/kg i.p.
  T/C, growth of s.c. implanted colon 38 tumor: 17%
Colon 38; Mus musculus, 64 mg/kg i.p., read-out: inhibition of growth of s.c. implanted colon 38 tumor
  inhibition at 64 mg/kg: 83%
Colon 38; listed as BIDA
  Antitumor activity in words: not active
Colon 38; listed as the compound
  Antitumor activity in words: at least a reproducible minimal activity; also recorded: active
Colon 38; median tumor weight, 25 tests, full wrapped cell: Reproducible minimal activity
  Table II evaluation: Reproducible minimal
[2]; listed as BIDA
  Antitumor activity in words: No activity was seen
[2]; listed as the compound
  Antitumor activity in words: not active
[2]; change in average tumor diameter, 4 tests, full wrapped cell: Activity not confirmed
  Table II evaluation: Activity not
[3]; canine heparinized plasma
  blood compatibility: compatibility
[3]; canine serum
  blood compatibility: compatibility
L-1210 Lymphoid leukemia [4]; 2.00 mg/kg i.p.
  Median survival time (MST): 9.7 days
  Percent T/C: 105%
L-1210 Lymphoid leukemia [4]; 4.00 mg/kg i.p.
  Median survival time (MST): 10.7 days
  Percent T/C: 116%
L-1210 Lymphoid leukemia [4]; 8.00 mg/kg i.p.
  Median survival time (MST): 12.0 days
  Percent T/C: 130%
L-1210 Lymphoid leukemia [4]; 16.00 mg/kg i.p.
  Median survival time (MST): 19.0 days
  Percent T/C: 200%
L-1210 Lymphoid leukemia [4]; 32.00 mg/kg i.p.
  Median survival time (MST): 8.3 days
  Percent T/C: 90%
L-1210 Lymphoid leukemia [5]; 1.00 mg/kg i.p.
  Mean survival time (MST): 9.0 days
  Percent T/C: 104%
L-1210 Lymphoid leukemia [5]; 2.00 mg/kg i.p.
  Mean survival time (MST): 8.7 days
  Percent T/C: 101%
L-1210 Lymphoid leukemia [5]; 4.00 mg/kg i.p.
  Mean survival time (MST): 9.3 days
  Percent T/C: 108%
L-1210 Lymphoid leukemia [5]; 8.00 mg/kg i.p.
  Mean survival time (MST): 11.7 days
  Percent T/C: 136%
L-1210 Lymphoid leukemia [5]; 16.00 mg/kg i.p.
  Mean survival time (MST): 17.0 days
  Percent T/C: 197%
L-1210 Lymphoid leukemia [5]; 32.00 mg/kg i.p.
  Mean survival time (MST): 7.7 days
  Percent T/C: 89%
[6]; 8.00 mg/kg i.p.
  Median survival time (MST): 17.0 days
  Percent T/C: 144%
[6]; 16.00 mg/kg i.p.
  Median survival time (MST): 21.0 days
  Percent T/C: 177%
[6]; 32.00 mg/kg i.p.
  Median survival time (MST): 7.3 days
[6]; 65.00 mg/kg i.p.
  Median survival time (MST): 6.4 days
B16 Melanocarcinoma [7]; 1.00 mg/kg i.p.
  Median survival time (MST): 18.8 days
  Percent T/C: 102%
B16 Melanocarcinoma [7]; 2.00 mg/kg i.p.
  Median survival time (MST): 17.0 days
  Percent T/C: 102%
B16 Melanocarcinoma [7]; 4.00 mg/kg i.p.
  Median survival time (MST): 20.0 days
  Percent T/C: 120%
B16 Melanocarcinoma [7]; 8.00 mg/kg i.p.
  Median survival time (MST): 19.4 days
  Percent T/C: 116%
B16 Melanocarcinoma [7]; 16.00 mg/kg i.p.
  Median survival time (MST): 22.9 days
  Percent T/C: 137%
B16 Melanocarcinoma [7]; 32.00 mg/kg i.p.
  Median survival time (MST): 7.0 days
B16 Melanocarcinoma [8]; 4.00 mg/kg i.p.
  Median survival time (MST): 22.0 days
  Percent T/C: 113%
B16 Melanocarcinoma [8]; 8.00 mg/kg i.p.
  Median survival time (MST): 23.2 days
  Percent T/C: 120%
B16 Melanocarcinoma [8]; 16.00 mg/kg i.p.
  Median survival time (MST): 27.0 days
  Percent T/C: 139%
B16 Melanocarcinoma [8]; 32.00 mg/kg i.p.
  Median survival time (MST): 6.3 days
Beagle dogs; 0.92 mg/kg
  gross or microscopic lesions: No drug-related gross or microscopic lesions were found
Beagle dogs; 0.92 mg/kg (1/10MELD10)
  Mortality / lethality: 0/4
Beagle dogs; 0.92 mg/kg, days 2 and 4
  SGPT: 27-40 I.U./L
Beagle dogs; 0.92 mg/kg, one dog, day 4
  BUN: 26 mg/dL
  Creatinine: 1.29 mg/dL
Beagle dogs; 9.2 mg/kg
  gross or microscopic lesions: No drug-related gross or microscopic lesions were found
Beagle dogs; 9.2 mg/kg (MELD10)
  Mortality / lethality: 0/4
Beagle dogs; 9.2 mg/kg, day 4
  Creatinine: 1.31 mg/dL
Beagle dogs; 9.2 mg/kg, one dog, days 2 and 4
  BUN: 22 to 23 mg/dL
Beagle dogs; 9.2 mg/kg, three dogs, days 2 and/or 4
  SGPT: 32-43 I.U./L
Beagle dogs; 18.4 mg/kg
  Nervous system signs: vocalizations, struggling against restraint, excessive salivation, hyperextension of all limbs and/or labored breathing
Beagle dogs; 18.4 mg/kg (2XMELD10), listed as BIDA
  Mortality / lethality: Neither the single injection of 2×MELD10 or the daily×5 injection of the 3×MELD10 caused lethality
Beagle dogs; 18.4 mg/kg (2XMELD10), listed as benzisoquinolinedione
  Mortality / lethality: no deaths and 0/4
Beagle dogs; 18.4 mg/kg, all dogs, day 2
  BUN: 23 to 32 mg/dL
Beagle dogs; 18.4 mg/kg, days 3, 8 or 4
  leukopenia (leukocyte count): 3.8-5.4 ×10^3 /cmm
Beagle dogs; 18.4 mg/kg, listed as benzisoquinolinedione
  gross or microscopic lesions: No gross or microscopic lesions were seen; also recorded: No drug-related gross or microscopic lesions were found
Beagle dogs; [9]
  SGOT: 43-70 I.U./L
  SGPT: 40-57 I.U./L
Beagle dogs; 18.4 mg/kg, two long-term dogs, days 22 and 29 or 28
  BUN: 23 to 29 mg/dL
Beagle dogs; listed as BIDA
  toxicity summary, dogs: Hematopoletic, renal and hepatic toxicity; also recorded: Signs indicating pain and/or neurotoxicity
Beagle dogs; listed as benzisoquinolinedione
  toxicity summary, dogs: reversible toxicity to the hematopoietic system, kidney and liver; also recorded: Signs indicative of pain and/or neurotoxicity; also recorded: No drug-related gross or microscopic lesions
HeLa cells
  ID50 in HeLa cells: 2.5 µg/mL (≈ 8.82 µM)

Reference: US5183821A, “Method for treating leukemias using N-(2-dimethylaminoethyl)-3-amino-1,8-naphthalimide for treating leukemias and solid tumors” (priority 1991, dated 1993)
